Experimental data published in patent publication US20230201290A1, “TGF-BETA INHIBITION, AGENTS AND COMPOSITION THEREFOR” (GMP BIOTECHNOLOGY LIMITED, priority 2020, published 2023).
≈ marks a conversion by molar mass, not a printed value. Where “and” joins values, the source holds several entries; their conditions need not be identical. Identical values can stand only once. Like-named read-outs stand apart in the source and are kept apart here.

Tests used:
[1] = cited from earlier work
SARS-COV-2 USA_WA1/2020 [2] = experiment: microbe, parasite or virus in culture
SARS-COV-2 USA_WA1/2020 [3] = settings: for Antiviral activity against SARS-CoV-2 (words): Vero 76; for SI=CC50/EC50: SARS-CoV-2; for SI (CC50/EC50): SARS-CoV-2, Vero 76 cells; for EC50: 50% effective antiviral concentration: SARS-CoV-2 USA_WA1/2020, Vero 76, CPE neutral red, day 5
[4] = 500 mg orally, Child B cirrhosis; cited from earlier work
SARS-CoV-2 [5] = settings: Vero E6, MOI 0.01, 24 h post-infection; cited from earlier work
vivax malaria = settings: cited from earlier work; for relapse rate within a month: 1975 comparison with chloroquine
cerebral malaria = settings: cited from earlier work
SARS-CoV-2 [6] = settings: VeroE6, 2-day incubation; cited from earlier work
in vitro = settings: African green monkey
TGF-β mRNA = settings: 100 mg/kg ip daily for 20 days; P<0.01; cited from earlier work
falciparum malaria = settings: cited from earlier work; for recrudescence in a month: 1975, 3-day regimens
C8161 human melanoma = experiment: Orthotopic C8161 human melanoma model
Vero E6 cells = settings: remdesivir, literature; cited from earlier work
SARS-CoV-2 virus = settings: higher values with higher multiplicity of infection; read-out: EC50 values for SARS-CoV-2 virus in the literature; cited from earlier work
[7] = healthy subjects; cited from earlier work
Vero 76 cells = settings: for CC50: 50% cytotoxic concentration of compound without virus added: run alongside SARS-CoV-2 test
[8] = 527 cases of falciparum malaria

## C[C@@H]1CC[C@H]2[C@@H](C)C(=O)O[C@@H]3O[C@@]4(C)CC[C@@H]1[C@]32OO4 [Artemisinin]
[1]; 500 mg after food
  AUC: 2,092±1,441 ng×ml^−1×h
  time at which half of the terminal value was reached: 0.97 ± 0.68 h
[1]; 500 mg capsules after food, six healthy subjects
  maximum concentration of drug in serum (Cmax): 443 ± 224 ng/mL
[1]; 1×250, 2×250, 4×250 mg capsules, eight healthy subjects
  oral plasma clearance: about 400 L h-1
[1]; population PK, 15 subjects, 160 and 500 mg
  mean oral clearance: 417 L/h
[1]; population PK, 15 subjects
  terminal elimination half-life: 1.93 h
  volume of distribution: 1210 L
[1]; semiphysiological autoinduction model, saliva
  mean induction time of own metabolism: 1.9 h
SARS-COV-2 USA_WA1/2020 [2]; Severe acute respiratory syndrome coronavirus 2, Vero 76, 120 h, read-out: EC50 (50% effective antiviral concentration)
  EC50: 0.45 µg/mL
SARS-COV-2 USA_WA1/2020 [2]; Severe acute respiratory syndrome coronavirus 2, Vero 76, 120 h, read-out: EC50: 50% effective antiviral concentration
  EC50: 0.45 µg/mL
SARS-COV-2 USA_WA1/2020 [2]; Severe acute respiratory syndrome coronavirus 2, Vero 76, read-out: EC50 (value in brackets)
  EC50: 1590 nM
SARS-COV-2 USA_WA1/2020 [3]
  Antiviral activity against SARS-CoV-2 (words): suppressed SARS-CoV-2 replication
SARS-COV-2 USA_WA1/2020 [3]; listed as artemisinin
  Antiviral activity against SARS-CoV-2 (words): High antiviral activity
[4]
  elimination half-life, log-linear regression: 4 (±1.3) h
  elimination half-life, non-linear regression, one-compartment model: 2.4 ± 0.9 h
  mean (±SD) area under the concentration time curve: 2365 (±1761) h ng/ml
  mean (±SD) clearance: 382 (±303) L/h
SARS-CoV-2 [5]
  anti-SARS-CoV-2 activity by RTPCR method: confirmed
Vivax malaria; 1511 cases of vivax malaria
  average asexual parasite clearance time: 30 to 40 h
  average defervescence time: 20 to 30 h
Vivax malaria; 1975: artemisinin tablets total 3 g, chloroquine total 1.5 g base
  parasite clearance time: 39.6 ± 13.5 h
Vivax malaria
  relapse rate within a month: 21.4%
Cerebral malaria; 141 patients
  mortality rate: 7.1%
  patients cured: 92.9%
Cerebral malaria; across all sites
  average defervescence time: 34.1 to 56.7 h
  average parasite clearance time: 33.3 to 64.5 h
  average time taken to regain consciousness: 21.5 to 30.8 h
Cerebral malaria; nasogastric gavage, 36 patients
  cure rate: 91.7%
SARS-CoV-2 [6]
  anti-SARS-CoV-2 activity by immunostaining for spike protein: confirmed
In vitro
  CC50: 61 µg/mL (≈ 216 µM)
TGF-β mRNA
  TGF-β mRNA levels within the tumor: significantly decreased
Falciparum malaria; 143 cases, 3-day regimen oil, oil suspension or water suspension
  cure of chloroquine-resistant (RI-RIII) cases: all patients were cured
Falciparum malaria; [8]
  Fever clearance time: 30 to 40 h
  asexual parasite clearance time: 30 to 50 h
Falciparum malaria; 1975, 3-day regimens: artemisinin tablets 2.5 g, chloroquine 1.5 g base
  average asexual parasite clearance time: 37 ± 17.8 h
Falciparum malaria
  recrudescence in a month: All the cases
Falciparum malaria; group A: 500 mg daily for 5 days
  average parasite clearance time: 34 ± 14 h
Falciparum malaria; group B: 100/100/250/250/500 mg escalating
  average parasite clearance time: 50 ± 23 h
Falciparum malaria; single 500 mg oral dose, 11 patients
  mean parasite clearance time: 36 h
Falciparum malaria; tablets
  recrudescence rate within a month: 85%

## CN(C)/N=N/c1[nH]cnc1C(N)=O [DTIC, dacarbazine]
C8161 human melanoma; group 3: 1 mg/kg ip four times/week
  Tumor growth suppressed versus control group 1 on day 42: −2%
C8161 human melanoma; group 4: 10 mg/kg ip four times/week
  Tumor growth suppressed versus control group 1 on day 42: 78%

## CCC(CC)COC(=O)[C@H](C)N[P@](=O)(OC[C@H]1O[C@@](C#N)(c2ccc3c(N)ncnn23)[C@H](O)[C@@H]1O)Oc1ccccc1 [Remdesivir]
Vero E6 cells
  CC50: > 200000 nM

## CCN(CC)CCCC(C)Nc1ccnc2cc(Cl)ccc12 (stereo not drawn) [chloroquine]
Vivax malaria
  relapse rate within a month: no cases of relapse
Falciparum malaria
  recrudescence in a month: 50%

## CCN(CCO)CCCC(C)Nc1ccnc2cc(Cl)ccc12 (stereo not drawn) [hydroxychloroquine]
SARS-CoV-2 virus
  EC50: 720 to 17300 nM

## Clc1ccc2c(N3CCN(CCCN4CCN(c5ccnc6cc(Cl)ccc56)CC4)CC3)ccnc2c1 [piperaquine]
[7]
  slope of plasma concentration vs placebo-adjusted ΔQTcF: 0.047 ms per ng ml-1

## AGCCCTGTATACGAC [FS (13,458-13,472)] (antisense AGCCCTGTAGACGAC; phosphorothioate backbone, further chemistry not given here)
SARS-COV-2 USA_WA1/2020 [3]
  SI=CC50/EC50: 53
  SI (CC50/EC50): 53
  EC50: 50% effective antiviral concentration: 5.2 µg/mL
  Antiviral activity against SARS-CoV-2 (words): High antiviral activity
Vero 76 cells; SARS-CoV-2 test
  Cytotoxicity: Cytotoxicity was observed
Vero 76 cells
  CC50: 50% cytotoxic concentration of compound without virus added: 430 µg/mL

## AGCCCTGTATACGAC [FS (13.458-13.274)MOE] (2'-MOE modified, pattern not given here)
SARS-COV-2 USA_WA1/2020 [3]
  SI=CC50/EC50: >40
  EC50: 50% effective antiviral concentration: 25 µg/mL
Vero 76 cells
  CC50: 50% cytotoxic concentration of compound without virus added: >1000 µg/mL

## CATTGTAGATGTCAAAAGCC (phosphorothioate backbone, further chemistry not given here) [FS-2a (13539-13558)]
SARS-COV-2 USA_WA1/2020 [3]
  SI=CC50/EC50: >59
  SI (CC50/EC50): >59
  EC50: 50% effective antiviral concentration: 17 µg/mL
  Antiviral activity against SARS-CoV-2 (words): High antiviral activity
Vero 76 cells
  CC50: > 1000 µg/mL
  CC50: 50% cytotoxic concentration of compound without virus added: >1000 µg/mL

## CGTTTAGAGAACAGATCTAC [TRS2-2 53-72 MOE] (2'-MOE modified, pattern not given here)
SARS-COV-2 USA_WA1/2020 [3]
  SI=CC50/EC50: >16
  SI (CC50/EC50): >16
  EC50: 50% effective antiviral concentration: 62 µg/mL
Vero 76 cells
  CC50: > 1000 µg/mL
  CC50: 50% cytotoxic concentration of compound without virus added: >1000 µg/mL

## CGTTTAGAGAACAGATCTAC [TRS2-2 53-72] (phosphorothioate backbone, further chemistry not given here)
SARS-COV-2 USA_WA1/2020 [3]
  SI=CC50/EC50: >530
  SI (CC50/EC50): >530
  EC50: 50% effective antiviral concentration: 1.9 µg/mL
  Antiviral activity against SARS-CoV-2 (words): High antiviral activity
Vero 76 cells
  CC50: > 1000 µg/mL
  CC50: 50% cytotoxic concentration of compound without virus added: >1000 µg/mL

## CTCCCTCATGGTGGCAGTTGA (chemistry not given here) [RSV, reference compound]
SARS-COV-2 USA_WA1/2020 [3]
  SI=CC50/EC50: >1.6
  SI (CC50/EC50): >1.6
  EC50: 50% effective antiviral concentration: 620.0 µg/mL and 620 µg/mL
  Antiviral activity against SARS-CoV-2 (words): did not demonstrate any suppression
Vero 76 cells
  CC50: > 1000 µg/mL

## GGTAGGTAAAAACCTAATAT [5TERM (1-20) MOE] (2'-MOE modified, pattern not given here)
SARS-COV-2 USA_WA1/2020 [3]
  SI=CC50/EC50: 120
  SI (CC50/EC50): 120
  EC50: 50% effective antiviral concentration: 4.9 µg/mL
  Antiviral activity against SARS-CoV-2 (words): High antiviral activity
Vero 76 cells
  Cytotoxicity: Cytotoxicity was observed
  CC50: 50% cytotoxic concentration of compound without virus added: 610 µg/mL
Vero 76 cells; SARS-CoV-2 test
  Cytotoxicity: Cytotoxicity was observed
SARS-CoV (Urbani strain)
  SI (CC50/EC50): >2.6

## GGTAGGTAAAAACCTAATAT [5TERM (1-20)] (phosphorothioate backbone, further chemistry not given here)
SARS-COV-2 USA_WA1/2020 [3]
  SI=CC50/EC50: >140
  SI (CC50/EC50): >140
  EC50: 50% effective antiviral concentration: 7.1 µg/mL
  Antiviral activity against SARS-CoV-2 (words): High antiviral activity
Vero 76 cells
  CC50: > 1000 µg/mL
  CC50: 50% cytotoxic concentration of compound without virus added: >1000 µg/mL

## GTTCGTTTAGAGAACAGATC (phosphorothioate backbone, 5-methyl C, further chemistry not given here) [TRS1 (53-72)]
SARS-COV-2 USA_WA1/2020 [3]
  SI=CC50/EC50: 95
  SI (CC50/EC50): 95
  EC50: 50% effective antiviral concentration: 7.6 µg/mL
  Antiviral activity against SARS-CoV-2 (words): High antiviral activity
Vero 76 cells; SARS-CoV-2 test
  Cytotoxicity: Cytotoxicity was observed
Vero 76 cells
  CC50: 50% cytotoxic concentration of compound without virus added: 720 µg/mL

## TAAAGTTCGTTTAGAGAACAG (phosphorothioate backbone, further chemistry not given here) [TRS2 (56-76)]
SARS-COV-2 USA_WA1/2020 [3]
  SI=CC50/EC50: >14
  SI (CC50/EC50): >14
  EC50: 50% effective antiviral concentration: 73 µg/mL
Vero 76 cells
  CC50: > 1000 µg/mL
  Cytotoxicity: Cytotoxicity was observed
  CC50: 50% cytotoxic concentration of compound without virus added: >1000 µg/mL
SARS-CoV (Urbani strain)
  SI (CC50/EC50): >2.9
